Data: US11040981B2, “Pyrrolotriazine compounds and methods of inhibiting TAM kinases” (Syros Pharmaceuticals, Inc., priority 2017, dated 2021)

Tests used:
[1] = target: T1, FLT3 (Homo sapiens, UniProt P36888); assay: TR-FRET kinase activity assay, FLT3; format: biochemical; conditions: ATP at Km, 60 minutes
T1 sequence (P36888 27-993): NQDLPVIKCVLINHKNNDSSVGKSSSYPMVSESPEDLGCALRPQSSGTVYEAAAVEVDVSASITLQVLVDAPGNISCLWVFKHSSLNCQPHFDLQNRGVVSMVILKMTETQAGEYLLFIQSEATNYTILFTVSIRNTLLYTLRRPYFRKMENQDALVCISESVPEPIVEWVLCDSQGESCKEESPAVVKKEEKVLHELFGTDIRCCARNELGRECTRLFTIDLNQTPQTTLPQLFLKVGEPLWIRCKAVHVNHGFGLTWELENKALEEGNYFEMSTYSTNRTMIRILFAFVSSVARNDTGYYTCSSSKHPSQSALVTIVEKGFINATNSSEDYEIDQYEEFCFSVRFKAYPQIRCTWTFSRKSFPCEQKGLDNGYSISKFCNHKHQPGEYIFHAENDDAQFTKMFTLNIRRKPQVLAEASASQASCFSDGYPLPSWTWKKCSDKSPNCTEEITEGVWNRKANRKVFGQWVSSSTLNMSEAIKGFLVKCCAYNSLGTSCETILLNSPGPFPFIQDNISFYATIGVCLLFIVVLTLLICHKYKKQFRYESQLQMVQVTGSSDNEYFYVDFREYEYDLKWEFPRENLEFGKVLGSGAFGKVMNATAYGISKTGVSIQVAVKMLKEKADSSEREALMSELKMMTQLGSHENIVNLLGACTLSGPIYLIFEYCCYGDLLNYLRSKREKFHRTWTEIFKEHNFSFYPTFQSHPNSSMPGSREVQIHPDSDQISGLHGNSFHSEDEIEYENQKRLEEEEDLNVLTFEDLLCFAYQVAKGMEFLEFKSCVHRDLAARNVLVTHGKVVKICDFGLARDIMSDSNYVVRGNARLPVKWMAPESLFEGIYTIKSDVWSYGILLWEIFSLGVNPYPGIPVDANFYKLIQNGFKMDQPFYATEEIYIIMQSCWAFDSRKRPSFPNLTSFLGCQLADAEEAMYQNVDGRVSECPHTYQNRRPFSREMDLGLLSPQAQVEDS
How it was run: (§1)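 Enzyme, fluorescent peptide substrate and compound were mixed, and the reaction was started with ATP at each kinase's Km, in 50 mM HEPES pH 7.5, 10 mM MgCl2, 1 mM EGTA, 0.01% Brij 35, 1 mM DTT at RT. After 60 minutes EDTA quench, Eu-labelled phospho-specific antibody was added for 30 minutes, and IC50 was derived from TR-FRET signal loss.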

[2] = target: T2, MERTK (Homo sapiens, UniProt Q12866); assay: TR-FRET kinase activity assay, MERTK; format: biochemical; conditions: for IC50: TR-FRET activity assay, ATP at Km, 60 minutes, read-out: Mer IC50
T2 sequence (Q12866 21-999): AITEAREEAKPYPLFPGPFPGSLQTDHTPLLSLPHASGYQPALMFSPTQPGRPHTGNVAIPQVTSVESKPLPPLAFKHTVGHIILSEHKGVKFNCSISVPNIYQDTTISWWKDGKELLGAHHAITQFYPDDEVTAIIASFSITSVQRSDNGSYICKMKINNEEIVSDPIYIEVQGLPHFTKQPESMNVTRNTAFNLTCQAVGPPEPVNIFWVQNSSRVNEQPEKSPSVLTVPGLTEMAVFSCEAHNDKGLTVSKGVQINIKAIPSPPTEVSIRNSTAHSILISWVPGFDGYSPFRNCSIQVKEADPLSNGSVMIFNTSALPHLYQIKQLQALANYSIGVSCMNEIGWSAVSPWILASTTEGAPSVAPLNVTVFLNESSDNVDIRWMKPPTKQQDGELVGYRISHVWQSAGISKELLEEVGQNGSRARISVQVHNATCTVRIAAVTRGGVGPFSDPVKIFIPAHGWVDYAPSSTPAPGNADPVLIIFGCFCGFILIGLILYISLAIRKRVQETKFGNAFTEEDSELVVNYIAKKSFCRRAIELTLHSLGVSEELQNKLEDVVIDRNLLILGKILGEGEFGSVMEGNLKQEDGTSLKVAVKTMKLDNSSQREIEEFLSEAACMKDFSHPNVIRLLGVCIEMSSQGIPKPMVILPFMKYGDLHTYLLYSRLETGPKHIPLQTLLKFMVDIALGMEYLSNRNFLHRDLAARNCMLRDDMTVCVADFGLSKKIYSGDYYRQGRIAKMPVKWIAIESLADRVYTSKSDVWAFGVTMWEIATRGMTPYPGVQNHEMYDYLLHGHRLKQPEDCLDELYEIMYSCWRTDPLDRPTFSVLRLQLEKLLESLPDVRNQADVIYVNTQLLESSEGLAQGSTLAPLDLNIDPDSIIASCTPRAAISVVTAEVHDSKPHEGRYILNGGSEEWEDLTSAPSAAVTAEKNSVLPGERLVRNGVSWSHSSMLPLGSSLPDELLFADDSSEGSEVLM
How it was run: as §1

[3] = ratio of Mer to FLT3: FLT3 IC50/Mer IC50
[4] = ratio calculated as FLT3 IC50/Mer IC50

| SMILES | IC50 [1] [µM] | IC50 [2] [µM] | FLT3/Mer ratio (FLT3 IC50/Mer IC50) [2, 3] | FLT3/Mer ratio (FLT3 IC50/Mer IC50) [2, 4] |
| --- | --- | --- | --- | --- |
| COC[C@H](C)Nc1ncc2c(-c3ccnc(C)c3)cc([C@H]3CC[C@H](O)CC3)n2n1 [Compound 146] | 1 to 10 | ≤ 0.1 | +++ (“+++” represents a ratio of >100) |  |
| COC[C@H](C)Nc1ncc2c(-c3cnn(CCN4CCOCC4)c3)cc([C@H]3CC[C@H](O)CC3)n2n1 [Compound 153] | 1 to 10 | ≤ 0.1 | +++ (“+++” represents a ratio of >100) |  |
| COC[C@H](C)Nc1ncc2c(-c3cnn(Cc4nnc(C)s4)c3)cc([C@H]3CC[C@H](O)CC3)n2n1 [Compound 596] | 0.1 to 1 | ≤ 0.1 |  | +++ (“+++” represents a ratio of >100) |
| COCC(C)Nc1ncc2c(-c3ccc(C(C)N4CCOCC4)cc3)cc(C3CCC(O)CC3)n2n1 (stereo not drawn) [Compound 182] | ≤ 0.1 | ≤ 0.1 | ++ (“++” represents a ratio of between 10 and 100) |  |
| CC(Nc1ncc2c(-c3ccc(CN4CCN(C)CC4)cc3)cc([C@H]3CC[C@H](O)CC3)n2n1)C(F)F (mixture of isomers) [Compound 148] | 0.1 to 1 | ≤ 0.1 | +++ (“+++” represents a ratio of >100) |  |
| COC[C@H](C)Nc1ncc2c(-c3cnn(C4COC4)c3)cc([C@H]3CCc4[nH]ncc4C3)n2n1 [Compound 624] | ≤ 0.1 | ≤ 0.1 |  | ++ (“++” represents a ratio of between 10 and 100) |
| CNC(=O)c1ccc(-c2cc([C@H]3CC[C@H](O)CC3)n3nc(N[C@@H](C)COC)ncc23)cn1 [Compound 147] | 1 to 10 | ≤ 0.1 | +++ (“+++” represents a ratio of >100) |  |
| C[C@@H](CC(F)(F)F)Nc1ncc2c(-c3cnn(C(C)(C)C(=O)N4CCN(C)CC4)c3)cc(C3CCC(O)CC3)n2n1 (stereo partly drawn) [Compound 626] | ≤ 0.1 | ≤ 0.1 |  | ++ (“++” represents a ratio of between 10 and 100) |
| CCOC(=O)Cn1cc(-c2cc([C@H]3CC[C@H](O)CC3)n3nc(N[C@@H](C)COC)ncc23)cn1 [Compound 159] | 0.1 to 1 | ≤ 0.1 | +++ (“+++” represents a ratio of >100) |  |
| C[C@@H](CC(F)(F)F)Nc1ncc2c(-c3cnn(C(C)(C)C(=O)C4COC4)c3)cc([C@H]3CC[C@@](C)(O)CC3)n2n1 [Compound 609] | ≤ 0.1 | ≤ 0.1 |  | ++ (“++” represents a ratio of between 10 and 100) |
| COC[C@H](C)Nc1ncc2c(-c3cnn(CC(=O)O)c3)cc([C@H]3CC[C@H](O)CC3)n2n1 [Compound 160] | 1 to 10 | ≤ 0.1 | +++ (“+++” represents a ratio of >100) |  |
| COC[C@H](C)Nc1ncc2c(-c3cnn(C(C)(C)c4nnc(C(C)C)o4)c3)cc([C@H]3CC[C@H](O)CC3)n2n1 [Compound 600] | 1 to 10 | ≤ 0.1 |  | +++ (“+++” represents a ratio of >100) |
| COC[C@H](C)N(C)c1ncc2c(-c3ccnc(C)c3)cc([C@H]3CC[C@H](O)CC3)n2n1 [Compound 175, (trans)-4-(2-(((S)-1-methoxypropan-2-yl)(methyl)amino)-5-(2-methylpyridin-4-yl)pyrrolo[2,1-f][1,2,4]triazin-7-yl)cyclohexanol] | 1 to 10 | 0.1 to 1 | ++ (“++” represents a ratio of between 10 and 100) |  |
| COC[C@H](C)Nc1ncc2c(-c3cnn(CC(=O)NS(C)(=O)=O)c3)cc([C@H]3CC[C@H](O)CC3)n2n1 [Compound 174] | 1 to 10 | ≤ 0.1 | +++ (“+++” represents a ratio of >100) |  |
| COC[C@H](C)Nc1ncc2c(-c3cnn(C4CCOCC4)c3)cc([C@H]3CC[C@H](O)CC3)n2n1 [Compound 151] | 0.1 to 1 | ≤ 0.1 | +++ (“+++” represents a ratio of >100) |  |
| COC[C@H](C)Nc1ncc2c(-c3cnccc3C)cc([C@H]3CC[C@H](O)CC3)n2n1 [Compound 168] | 1 to 10 | ≤ 0.1 | +++ (“+++” represents a ratio of >100) |  |
| COC[C@H](C)Nc1ncc2c(-c3ccc([C@@H](C)N4CCOCC4)cc3)cc([C@H]3CC[C@H](O)CC3)n2n1 [Compound 156] | 0.1 to 1 | ≤ 0.1 | ++ (“++” represents a ratio of between 10 and 100) |  |
| C[C@@H](CC(F)(F)F)Nc1ncc2c(-c3cnn(C(C)(C)C(=O)N4CC5(COC5)C4)c3)cc([C@H]3CC[C@H](O)CC3)n2n1 [Compound 608] | ≤ 0.1 | ≤ 0.1 |  | ++ (“++” represents a ratio of between 10 and 100) |
| COC[C@H](C)Nc1ncc2c(-c3cnn(C4COC4)c3)cc([C@H]3CC[C@](O)(C(C)C)CC3)n2n1 [Compound 617] | 0.1 to 1 | ≤ 0.1 |  | +++ (“+++” represents a ratio of >100) |
| COCC(C)Nc1ncc2c(-c3ccc(C4(C(=O)N5CCS(=O)(=O)CC5)CC4)cc3)cc(C3CCC(O)CC3)n2n1 (stereo not drawn) [Compound 172] | ≤ 0.1 | ≤ 0.1 | ++ (“++” represents a ratio of between 10 and 100) |  |
| COC[C@H](C)Nc1ncc2c(-c3ccnc(N4CCC(C)(O)C4)c3)cc(C3CCC(O)CC3)n2n1 (stereo partly drawn) [Compound 633] | 0.1 to 1 | ≤ 0.1 |  | +++ (“+++” represents a ratio of >100) |
| COCC1(Nc2ncc3c(-c4ccc(CN5CCN(C)CC5)cc4)cc(C4CCC(O)CC4)n3n2)CC1 (stereo not drawn) [Compound 149] | 0.1 to 1 | ≤ 0.1 | ++ (“++” represents a ratio of between 10 and 100) |  |
